Source: US20130041005A1, “PHARMACEUTICAL COMPOSITIONS COMPRISING NEUROPILIN INHIBITORS, AND THEIR USE FOR THE PREVENTION AND/OR TREATMENT OF ANGIOGENIC DISORDERS AND CANCERS” (TRAGEX PHARMA, priority 2011, published 2013)
Entries after “also recorded” stand apart in the source; their conditions may differ.

Tests used:
[1] = tested on: Panc-10.5; test: WST-1 proliferation assay, Panc-10.5; type: cell-based; settings: Homo sapiens; PANC - 10.5, 0.05 μM
[2] = tested on: breast cancer cells (MDA-MB-231); test: Apoptosis assay (Annexin V-FITC/PI), MDA-MB-231; type: cell-based, Human; settings: IC50 concentration, 72 h (FIG. 5B)
Protocol: The level of apoptosis in endothelial (HUVEC) and breast cancer cells (MDA-MB-231) was detected by Annexin V-FITC Apoptosis Detection Kit (ref 556547, BD Biosciences, France) according to the manufacturer's instructions. Briefly, HUVEC and MDA-MB-231 cells were treated separately with DMSO (control) and the compounds of the invention at the concentration corresponding to the IC50, obtained by the proliferation assay, for 72 h. After treatment, all cell including both detached and attached cells were collected, centrifugated at 14000 rpm for 5 min and the apoptotic cells were detected by staining with Annexin V-FITC and (propidium iodide) PI. The cells were resuspended in 100 μl Annexin V binding buffer (10 mM Hepes/NaOH, pH 7.4, 140 mM NaCl, […]) containing 5 μl of Annexin V-FITC and 5 μl of PI (propidium iodide). Samples were gently mixed and incubated for 2 h on ice and in the dark. Viable and apoptotic cell were detected by flow citometry (FACS Calibur Becton Dickinson, France). Apoptotic cells include both the early apoptotic portion (Annexin V-positive) and the late apoptotic portion (Annexin V- and PI-positive). Staurosporine is used as a positive control of apoptosis induction.

[3] = tested on: HCT-116; test: WST-1 proliferation assay, HCT-116; type: cell-based; settings: Homo sapiens; for IC50: Colon HCT-116, 72 h, read-out: Anti-proliferative activity IC50 (μM) ± SD; for inhibition at 0.1 µM: HCT-116, 0.1 μM; for inhibition at 0.5 µM: HCT-116, 0.5 μM; for inhibition at 1 µM: HCT-116, 1 μM
Source text: (§1) Several cancer cell lines were used: breast cancer cells (MDA-MB-231 (ATTCC® Number HTB-26™), MDA-MB-436 (ATTCC® Number HTB-130™), MDA-MB-438, BT-474 (ATTCC® Number HTB-20™)); cervical cancer cells (HeLa (ATTCC® Number CCL-2™)); colon cancer cells (HCT-116 (ATTCC® Number CCL-247™) and HT-29 (ATTCC® Number HTB-38™)); osteosarcoma cells (U2OS (ATTCC® Number HTB-96™)); pancreas cancer cells (MIA PaCa-2 (ATTCC® Number CRL-1420™) and Panc-10.5 (ATTCC® Number CRL-2547™)); prostate cancer cells (PC-3 (ATTCC® Number CRL-1435™) and LNCaP (ATTCC® Number CRL-1740™)); brain cancer cells (U87 glioblastoma (ATTCC® Number HTB-14™) and SH-SYSY neuroblastoma (ATTCC® Number CRL-2266™)).
(§2) All the cancer cell lines were maintained in cultured in DMEM GlutaMAX™ (GIBCO Invitrogen, France, cat no 31966047) enhanced with 10% foetal bovine serum (GIBCO Invitrogen, France, cat no 10270-106) and 1% penicillin G/streptomycin (GIBCO Invitrogen, France, cat no 15140-122). Only Panc-10.5 cells were cultivated in RPMI 1640 medium (Gibco) supplemented with 2 mM L-glutamine, 1.5 g/L sodium bicarbonate, 4.5 g/L glucose, 10 mM HEPES, 1 mM sodium pyruvate, 10 Units/ml human insulin, […] (SVF): 15% (75 ml in 500 ml of medium).
Cells were grown as subconfluent monolayer and cultured in 75 cm^2 flasks at 37° C., 5% CO2 in a humidified atmosphere, and medium was changed every two days. Only cells from passages 2-6 were used for the experiments.
After observation of cells under the microscope, old media were removed and the adherent cells washed gently twice with PBS (Phosphate Buffer Saline, —Ca^2+, —Mg^2+, Lonza cat no: 17-512F/12). All cells were detached with 3 ml of trypsin/EDTA (chelator of calcium and magnesium ions) (Lonza), incubated for 5 min at 37° C., and examined using a microscope to ensure that the cells were detached and floating. Then, 3 ml TNS (Trypsin Neutralizing Solution, Lonza, France, cat no CC-5002) or of culture medium were added to inactivate the trypsin, and the cell suspension was transferred in a falcon and centrifuged for 7 min at 1400 rpm. The supernatant was removed and the cell pellet resuspended in […] of culture medium. 50 μl of this solution were transferred in 20 μl of isotonic solution and the cells were counted by count cellular (Beckman Coulter). At day 0, 200 μl of cellular suspension (3.10^3 cells/well for the HUVEC cells, breast cancer cells (MDA-MB-231 1.10^4 cells/well, MDA-MB-436 1.10^4 cells/well, MDA-MB-438 2.10^4 cells/well, BT-474 2.5.10^4 cells/well); cervical cancer cells (HeLa 5.000 cells/well); colon cancer cells (HCT-116 5.10^3 cells/well, HCT-29 1.1.10^4 cells/well); osteosarcoma cells (U2OS 8.10^3 cells/well); pancreas cancer cells (MIA PaCa-2 5.10^3 cells/well, Panc-10.5 1.5.10^4 cells/well); prostate cancer cells (PC-3 4.10^3 cells/well, LNCaP 2.10^4 cells/well); brain cancer cells (U87 5.10^3 cells/well, SH-SYSY 8.10^4 cells/well)) were then plated on 96 well plates and incubated at 37° C. in a humidified atmosphere of 5% CO2 for 24 h.
At day 1, the compounds 1 or 2 of the invention were added at increasing concentrations (0.1-10 μM) in the wells and plates were incubated at 37° C. in a humidified atmosphere of 5% CO2 for 72 h.
The cell proliferation WST-1 assay is a colorimetric assay for the quantification of cell proliferation and viability, based on the enzymatic cleavage of the tetrazolium salt WST-1 added to the culture medium, to a water soluble colored formazan dye, detected by absorbance at 450 nm, by mitochondrial succinate-tetrazolium reductase in viable cells. An augmentation in enzyme activity will then lead to an increase in the amount of formazan dye formed, which directly correlates to the number of metabolically active cells in the culture.
After an incubation period of 72 h, at day 4, were prepared the 19 ml medium with reagent WST-1 1 ml ([…]). The medium was removed from the 96 microplate and 200 μl of solution WST-1/medium were added for each well. […]

[4] = tested on: CEM; test: WST-1 proliferation assay, CEM; type: cell-based; settings: Homo sapiens, CCRF-CEM; Acute lymphoblastic leukemia CEM; read-out: Anti-proliferative activity IC50 (μM) ± SD
Protocol: as §2
Cells were grown as subconfluent monolayer and cultured in 75 cm^2 flasks at 37° C., 5% CO2 in a humidified atmosphere, and medium was changed every two days. […]
(§3) The cell proliferation WST-1 assay is a colorimetric assay for the quantification of cell proliferation and viability, based on the enzymatic cleavage of the tetrazolium salt WST-1 added to the culture medium, to a water soluble colored formazan dye, detected by absorbance at 450 nm, by mitochondrial succinate-tetrazolium reductase in viable cells. […]
After an incubation period of 72 h, at day 4, were prepared the 19 ml medium with reagent WST-1 1 ml ([…]). […] The cells were incubated at 37° C. in a humidified atmosphere of 5% CO2 for 1 h 30 and the absorbance at 450-655 nm was measured by Microplate Manager 5.2 (Bio-Rad).

[5] = tested on: cancer cell lines; test: wst-1 cytotoxic test, all tested cancer cell lines; type: cell-based, Human; settings: breast, colon, pancreas, cervical, prostate or brain cancer or osteosarcoma
Source text: as §1, with “CRL-2266™)). […]” for “CRL-2266™)).”
After observation of cells under the microscope, old media were removed and the adherent cells washed gently twice with PBS (Phosphate Buffer Saline, —Ca^2+, —Mg^2+, Lonza cat no: 17-512F/12). […] 50 μl of this solution were transferred in 20 μl of isotonic solution and the cells were counted by count cellular (Beckman Coulter). […]
as §3

SMILES | inhibition at 0.05 µM [1] [%] | induction of apoptosis in cancer cells [2] | IC50 [3] [µM] | inhibition at 0.1 µM [3] [%] | inhibition at 0.5 µM [3] [%] | inhibition at 1 µM [3] [%] | IC50 [4] [µM] | cytotoxicity for all the tested cancer cell lines [5]
Cc1ccc(-c2nc3ccccc3[nH]2)cc1NC(=S)NC(=O)c1ccc2c(c1)OCCO2 [Compound 1, N-[5-(1H-benzimidazol-2-yl)-2-methylphenyl]-N′-(2,3-dihydro-1,4-benzodioxin-6-ylcarbonyl)thiourea] | 18 | induced the apoptosis; also recorded: induction of apoptosis | 1 | 7 | 51 | 56 | 0.5 ± 0.01 | cytotoxic for all the tested cancer cell lines
O=C(NC(=S)Nc1cccc(-c2nc3ccccc3[nH]2)c1)c1ccc2c(c1)OCCO2 [Compound 2, N-[3-(1H-benzimidazol-2-yl)phenyl]-N′-(2,3-dihydro-1,4-benzodioxin-6-ylcarbonyl)thiourea] | 35 | induced the apoptosis; also recorded: induction of apoptosis | 1 | 49 | 58 | 60 | 0.3 ± 0.04 | cytotoxic for all the tested cancer cell lines
